Data on two compounds can be found in US5684147A, “Therapeutic anti-HIV anti-viral oligonucleotides and pharmaceutical formulations thereof” (Hybridon, Inc., priority 1994, dated 1997).

In assay [1] the test system is HIV-1 reverse transcriptase (RT) activity in chronically infected CEM cells. To be noted: chronically infected human T lymphocytes such as CEM; general statement without data; cited from earlier work.
The subject of assay [2] is HIV-1 (HTLVIIIB or HTLVIIIMN strains) in H9 cells. Description: HIV p24 antigen capture assay, acute infection of H9 cells. The assay is classed as cell-based. To be noted: Human immunodeficiency virus 1, H9, Expt. 1. The source says: After infection, unabsorbed virions are removed by washing.
For assay [3], the system named is HIV-1 (HTLVIIIB) in H9 cells. The assay can be described thus: Long term infection assay, p24 expression in H9 cells (antigen capture). The note with it: for inhibition at 0.05 µM: read-out: % inhibition of p24 compared with control. The assay is classed as cell-based.

Read-outs that look alike come from different tables or passages of the source.

As for `Cc1cn([C@H]2C[C@H](N=[N+]=[N-])[C@@H](CO)O2)c(=O)[nH]c1=O` [AZT, 3'-azido-3'-deoxythymidine], the “inhibition of HIV replication in chronically infected cells (in words)” value in assay [1] is recorded as “do not inhibit HIV replication”. Besides, in assay [2] (AZT 0.0016 μg/ml (0.005 μM)), the inhibition (usually the share of the control response that was lost under treatment) at 0.005 µM is 6%. Further, the inhibition at 0.02 µM in assay [2] (AZT 0.008 μg/ml (0.02 μM)) amounted to 44%. The compound also displayed an inhibition at 0.1 µM in assay [2] (AZT 0.04 μg/ml (0.1 μM)) of 73%. This compound also yielded an inhibition at 0.6 µM in assay [2] (AZT 0.2 μg/ml (0.6 μM)) of 90%.

`Nc1ccn([C@H]2CC[C@@H](CO)O2)c(=O)n1` [ddC, dideoxycytosine]: the “inhibition of HIV replication in chronically infected cells (in words)” value in assay [1] was “do not inhibit HIV replication”. The inhibition at 0.05 µM came out at 75% in assay [3] (Human immunodeficiency virus 1, H9, 72 h, day 3, 25mer 0.60 μM, ddC 0.05 μM); 94% in assay [3] (Human immunodeficiency virus 1, H9, 168 h, day 7, 25mer 0.60 μM, ddC 0.05 μM); 91% in assay [3] (Human immunodeficiency virus 1, H9, 240 h, day 10, 25mer 0.60 μM, ddC 0.05 μM); 56% in assay [3] (Human immunodeficiency virus 1, H9, 336 h, day 14, 25mer 0.60 μM, ddC 0.05 μM); 44% in assay [3] (Human immunodeficiency virus 1, H9, 408 h, day 17, 25mer 0.60 μM, ddC 0.05 μM). For the same compound, the “p24 expression” value in assay [3] (day 3, 25mer 0.60 μM, ddC 0.05 μM, control 489) was 124 pg/mL. Further, the “p24 expression (pg/ml)” value in assay [3] (day 7, 25mer 0.60 μM, ddC 0.05 μM, control 188,800) is given as 10,800 pg/ml; in assay [3] (day 10, 25mer 0.60 μM, ddC 0.05 μM, control 210,400), 17,300 pg/ml; in assay [3] (day 14, 25mer 0.60 μM, ddC 0.05 μM, control 130,400), 60,000 pg/ml; in assay [3] (day 17, 25mer 0.60 μM, ddC 0.05 μM, control 95,600) it was 54,000 pg/ml. In addition, in assay [3] (long term culture, up to day 17), the “long term inhibition of p24 expression (in words)” value is listed as “ineffectiveness of ddC”.
